According to paper PMC7418971 (PLoS Pathogens, 2020):

Tests used:
[1] = target: Eng195 M2-N31 CD peptide (aa 18-60) (Influenza A virus, UniProt P06821, A27V/L43T); assay type: biochemical, Influenza A/England/195/2009 (H1N1)
[2] = target: Eng195 M2-N31 TM peptide (aa 18-46) (Influenza A virus, UniProt P06821, A27V/L43T); assay type: biochemical, Influenza A/England/195/2009 (H1N1)
[3] = target: Eng195 M2-S31 CD peptide (aa 18-60) (Influenza A virus, UniProt P06821, A27V/L43T/N31S); assay type: biochemical, Influenza A/England/195/2009 (H1N1)
[4] = system: E195 engineered to express M2-S31; assay type: cell-based, influenza A virus
[5] = target: M2-N31 CD peptide channels (Influenza A virus, UniProt P06821, A27V/L43T); assay type: biochemical, Influenza A/England/195/2009 (H1N1)
[6] = target: M2-N31 TM peptides (Influenza A virus, UniProt P06821, A27V/L43T); assay type: biochemical, Influenza A/England/195/2009 (H1N1)
[7] = system: Eng195 in MDCK culture; assay type: cell-based, influenza A virus
[8] = system: M2-S31N (H3N2 Udorn); settings: read-out: IC50 in two-electrode voltage clamp assay; cited from earlier work

In the case of `Cc1ccc2nc(Oc3ccccc3)ccc2c1` [DP9], the “% M2 activity (40 µM) N31 CD” value [1] is reported as 65.8%, the “% M2 activity (40 µM) N31 TM” value [2] is reported as 100% and the “% M2 activity (40 µM) S31 CD” value [3] is reported as 97.4%.
With `CCCCCCCCCN1C[C@H](O)[C@@H](O)[C@H](O)[C@H]1CO` [NNDNJ, reference compound] the “effect on M2-N31 CD peptide channel activity” value [1] was “blocked the activity” and the “effect on M2-S31 CD peptide channel activity” value [3] was “blocked the activity”.
With `Nc1nc(-c2cc3c(cc2Cl)OCCO3)cs1` [L] the “effect on M2-N31 CD peptide channel activity” value [1] was “inactive” and the “effect on M2-S31 CD peptide channel activity” value [3] was “inactive”.
In the case of `CN1CCN(C(=O)c2ccc3ccccc3c2)CC1` [B], the “effect on M2-N31 CD peptide channel activity” value [1] is reported as “not N31”, the “effect on M2-S31 CD peptide channel activity” value [3] is reported as “activity versus M2-S31” and the “antiviral effect versus E195 with M2-S31 (N31S)” value (“antiviral effect versus E195” for short) [4] is reported as “neither B nor K exhibited antiviral effects”.
With `Cc1c2ccccc2n2cc(-c3ccccc3)nc(C(C)C)c12` [DL7] the “% M2 activity (40 µM) N31 CD” value [1] was 19.5%, the “% M2 activity (40 µM) N31 TM” value [2] was 15.0% and the “% M2 activity (40 µM) S31 CD” value [3] was 31.3%.
With `OC(CN1CCCC1)C12CC3CC(CC(C3)C1)C2` (stereo not shown) [G] the “effect on M2-N31 CD peptide channel activity” value [1] was “no activity” and the “effect on M2-S31 CD peptide channel activity” value [3] was “no activity”.
In the case of `O=C(Nc1nnc[nH]1)c1cc2ccccc2o1` [K], the “effect on M2-N31 CD peptide channel activity” value [1] is reported as “not N31”, the “effect on M2-S31 CD peptide channel activity” value [3] is reported as “activity versus M2-S31” and the “antiviral effect versus E195” value [4] is reported as “neither B nor K exhibited antiviral effects”.
For `OCCNC12CC3CC(CC(C3)C1)C2` [J], the “effect on M2-N31 CD peptide channel activity” value [1] was “inhibited” and the “effect on M2-S31 CD peptide channel activity” value [3] was “inhibited”.
For `c1csc(-c2cc(CNC34CC5CC(CC(C5)C3)C4)no2)c1` [M2WJ332, (3S,5S,7S)-N-{[5-(thiophen-2-yl)-1,2-oxazol-3-yl]methyl}tricycle[3.3.1.1~3,7~]decan-1-aminium, reference compound], the “% M2 activity (40 µM) N31 CD” value [1] was 58.4%, the “effect on M2-N31 CD peptide channel activity” value [1] was “blocked the activity” and the “inhibition of channel activity of the N31 CD peptide” value [1] was ~ 40%. For the same compound, the “% M2 activity (40 µM) N31 TM” value [2] was 100%, the “effect on M2-N31 TM peptide channel activity” value [2] was “no TM-specific activity” and the “% M2 activity (40 µM) S31 CD” value [3] was 85%. The “effect on CD peptide activity in bilayer” value [5] was “abrogate activity”, the “inhibition of M2-N31 CD peptide channels in bilayer” value [5] was “sensitive to nanomolar concentrations” and the “effect on TM peptide activity in bilayer” value [6] was “modest effect”. For the same compound, the “inhibition of M2-N31 TM peptide channels in bilayer” value [6] was “retained channel activity”, the “inhibitor concentration under which virus could be expanded from plaques” value (shortened to “inhibitor concentration”) [7] was 80 µM and the “plaques retained by selected supernatants” value [7] was ~ 30 % of DMSO control. For the same compound, the “time for cytopathic effects (CPE) to manifest on plaque expansion” value (shortened to “time for cytopathic effects (CPE)”) [7] was no more than 24 h and the IC50 [8] was 16 µM.
With `CC(N)C12CC3CC(CC(C3)C1)C2` (racemic) [rimantadine, (RS)-1-(1-adamantyl)ethanamine, reference compound] the “effect on M2-N31 CD peptide channel activity” value [1] was “only blocked activity of Eng195 M2-S31 peptides”, the “effect on M2-S31 CD peptide channel activity” value [3] was “blocked activity” and the “inhibition of channel activity of M2-WT (S31)” value [3] was 50%. The “inhibitor concentration” value [7] was 80 µM and the “time for cytopathic effects (CPE)” value [7] was no more than 24 h.
In the case of `COc1ccccc1NC(=S)NC(=O)c1cc2ccccc2cc1OC` [L1.1], the “% M2 activity (40 µM) N31 CD” value [1] is reported as 32.8%, the “% M2 activity (40 µM) N31 TM” value [2] is reported as 22.0% and the “% M2 activity (40 µM) S31 CD” value [3] is reported as 41.8%. For the same compound, the “antiviral effect versus E195” value [4] was “active”, the “inhibition of M2-N31 TM peptide channels in bilayer” value [6] was “inhibited TM peptides” and the “inhibitor concentration” value [7] was no more than 20 µM. For the same compound, the “time for cytopathic effects (CPE)” value [7] was “at least 48 h”.
In the case of `Cc1ncc(C23CC4CC(CC(C4)C2)C3)[nH]1` [H], the “effect on M2-N31 CD peptide channel activity” value [1] is reported as “inhibited” and the “effect on M2-S31 CD peptide channel activity” value [3] is reported as “inhibited”.
For `CCN1CCC(NC2C3CC4CC(C3)CC2C4)CC1` (stereo not shown) [E], the “effect on M2-N31 CD peptide channel activity” value [1] was “no activity” and the “effect on M2-S31 CD peptide channel activity” value [3] was “no activity”.
In the case of `c1cc2nc(C34CC5CC(CC(C5)C3)C4)[nH]c2cn1` [D], the “effect on M2-N31 CD peptide channel activity” value [1] is reported as “inhibited” and the “effect on M2-S31 CD peptide channel activity” value [3] is reported as “inhibited”.
